# Patent publication US20090176817A1, “Method of Treatment of Diarrhea-Predominant Irritable Bowel Syndrome in a Subject” (priority 2005, published 2009)
# Where two headings read alike, the source gives them in different places. Marks after values point to notes of the source that are not given here.
# Legend:
# [1] = test system: healthy subjects; experiment: Study K.241.5007: rectal visceral perception; assay type: in vivo, human; conditions: mean; for Pressure first producing abdominal pain, Differences from Placebo / Pressure first producing feeling of abdominal sensation, Differences from Placebo / Pressure first producing feeling of need to defecate, Differences from Placebo / Volume first producing abdominal pain, Differences from Placebo / Volume first producing feeling of abdominal sensation, Differences from Placebo / Volume first producing feeling of need to defecate, Differences from Placebo: not significant; for Pressure first producing abdominal pain / Pressure first producing feeling of abdominal sensation / Pressure first producing feeling of need to defecate / Volume first producing abdominal pain / Volume first producing feeling of abdominal sensation / Volume first producing feeling of need to defecate: rectal distension, absolute value
# Experimental: The effect of cilansetron on rectal visceral perception was evaluated in a randomized, doubleblind, placebo-controlled, 4-way crossover study in 12 male healthy subjects (ITT population), aged 18-26 years. Subjects received single IV doses of placebo or cilansetron 4 mg, 8 mg, or 16 mg as 30-minute infusions during each of the periods, with a 14-day washout between periods. Rectal distension tests were done during each treatment, immediately following the completion of each infusion. An electronic barostat was used to produce isobarometric distensions (successive 4 mmHg increases every 5 minutes, up to a sensation of abdominal pain or a maximum of 44 mmHg). The primary efficacy parameter was the distension pressure required to induce a sensation of abdominal pain. Secondary parameters were the distension pressure at the first feeling of abdominal/rectal sensation and the first feeling of need to defecate, and the response rate (defined as the number of subjects who experienced no abdominal pain at the maximum pressure of 44 mmHg). The pain threshold for each of the three cilansetron doses was compared to placebo using a one-sided Dunnett t-test.
# [2] = test system: healthy subjects; experiment: Study K.241.5009: esophageal motility; assay type: in vivo, human; conditions: mean
# Experimental: The effect of cilansetron on esophageal motility was evaluated in a randomized, double-blind, placebo-controlled, 3-way crossover study in 12 male healthy subjects (ITT population), aged 32-62 years. Subjects received placebo, cilansetron 4 mg, or cilansetron 8 mg administered orally TID for 7 days during each of the 3 periods, with a 7-day washout between periods. Before conduct of esophageal distension tests using an intraesophageal balloon, primary esophageal motility was induced by at least 5 wet swallows of 5 mL water and […] manometrically registered. Amplitude and duration of esophageal contractions were measured in 3 channels proximal and distal to the balloon and the velocity of propagation of contractions was […] measured over the 2 inter-channel intervals. […] For velocity of propagation, a slight trend towards […] reduced velocity with increasing cilansetron dose was found in the 7-2 cm interval but not in the 17-7 cm interval, and there was no effects seen on onset in either interval.
# [3] = both, human, in vivo
# Experimental: The effect of renal impairment on the pharmacokinetics of cilansetron was evaluated in a study excluding subjects with end-stage renal disease, and utilizing a single-center, open-label, multiple-dose, parallel group study in 13 male and 9 female subjects, aged 33-74 years. […] Healthy subjects were matched to renally-impaired subjects with respect to age, weight, gender, and smoking status. All subjects received oral cilansetron 2 mg TID on Days 1 to 5, and a single dose on the morning of Day 6. Blood samples for measurement of plasma pharmacokinetics of cilansetron and its 4-hydroxy metabolites were collected up to 24 hours following dosing on Day 6, and log-transformed pharmacokinetic parameters for these analytes were statistically compared between study groups. Serum concentrations of unbound cilansetron and its 4-hydroxy metabolites were also measured prior to dosing and at 1 and 1.5 hours postdose on Day 6.
# [4] = clinical; conditions: human, in vivo
# Experimental: Two randomized, double-blind, placebo controlled, balanced incomplete block design, crossover studies evaluated the single- and multiple-dose pharmacokinetics of oral cilansetron over a 8 mg to 32 mg dose range. In both studies, subjects were randomized to receive two of three treatments during 2 treatment periods. In one study (12 male and 13 female subjects, aged 23 to 36 years), subjects received 8 mg cilansetron, 16 mg cilansetron, or placebo, while in another study (12 males and 13 females, aged 23 to 41 years), subjects received 16 mg cilansetron, 32 mg cilansetron, or placebo. During each treatment period, subjects received a single dose of their assigned treatment on the first day, followed by a 3-day washout, after which they received the same treatment TID for 5 days.
# There was a 5-6 day washout period between treatment periods. Doses on the mornings of pharmacokinetic days were administered under fasted conditions. Serial blood sampling and urine collection was performed up to 12 hours following morning dosing on the first day (single dose) and on the last multiple dosing day of each treatment period, and cilansetron pharmacokinetic parameters were evaluated.
# In two randomized, double-blind, placebo controlled, balanced incomplete block design, crossover studies evaluating the single- and multiple-dose pharmacokinetics of oral cilansetron over a 8 mg to 32 mg dose range, subjects were randomized to receive two of three treatments during 2 treatment periods. In Study S.241.1.101; (12 male and 13 female subjects, aged 23 to 36 years), subjects received 8 mg cilansetron, 16 mg cilansetron, or placebo, while in Study S.24 1.1.102; (12 males and 13 females, aged 23 to 41 years), subjects received 16 mg cilansetron, 32 mg cilansetron, or placebo. During each treatment period, subjects received a single dose of their assigned treatment on the first day, followed by a 3-day washout, after which they received the same treatment TID for 5 days. There was a 5-6 day washout period between treatment periods. Doses on the mornings of pharmacokinetic days were administered under fasted conditions. Serial blood sampling and urine collection was performed up to 12 hours following morning dosing on the first day (single dose) and on the last multiple dosing day of each treatment period, and cilansetron pharmacokinetic parameters were evaluated.
# [5] = channel 2 cm, 4 mg TID oral 7 days
# [6] = channel 2 cm, 8 mg TID oral 7 days
# [7] = channel 7 cm, 4 mg TID oral 7 days
# [8] = channel 7 cm, 8 mg TID oral 7 days
# [9] = channel 17 cm, 4 mg TID oral 7 days
# [10] = channel 17 cm, 8 mg TID oral 7 days
# [11] = inter-channel interval 7-2 cm, 4 mg TID oral 7 days
# [12] = inter-channel interval 7-2 cm, 8 mg TID oral 7 days
# [13] = inter-channel interval 17-7 cm, 4 mg TID oral 7 days
# [14] = inter-channel interval 17-7 cm, 8 mg TID oral 7 days
smiles,measurement,setting,value
"Cc1nccn1C[C@H]1CCc2c(c3cccc4c3n2CCC4)C1=O [Cilansetron, (R)-(−)-4,5,6,8,9,10-hexahydro-10-[(2-methyl-1H-imidazol-1-yl)methyl]-11H-pyrido-[3,2,1-jk]-carbazol-11-one]","Pressure first producing abdominal pain, Differences from Placebo",[1]; 4 mg single IV dose,0.67 mmHg
same,"Pressure first producing feeling of abdominal sensation, Differences from Placebo",[1]; 4 mg single IV dose,−1.00 mmHg
same,"Pressure first producing feeling of need to defecate, Differences from Placebo",[1]; 4 mg single IV dose,−0.67 mmHg
same,"Volume first producing abdominal pain, Differences from Placebo",[1]; 4 mg single IV dose,12.7 mL
same,"Volume first producing feeling of abdominal sensation, Differences from Placebo",[1]; 4 mg single IV dose,-20.0 mL
same,"Volume first producing feeling of need to defecate, Differences from Placebo",[1]; 4 mg single IV dose,-8.75 mL
same,Pressure first producing abdominal pain,[1]; 4 mg single IV dose,31.0 mmHg
same,Pressure first producing feeling of abdominal sensation,[1]; 4 mg single IV dose,12.7 mmHg
same,Pressure first producing feeling of need to defecate,[1]; 4 mg single IV dose,20.3 mmHg
same,Volume first producing abdominal pain,[1]; 4 mg single IV dose,310 mL
same,Volume first producing feeling of abdominal sensation,[1]; 4 mg single IV dose,132 mL
same,Volume first producing feeling of need to defecate,[1]; 4 mg single IV dose,233 mL
same,"Pressure first producing abdominal pain, Differences from Placebo",[1]; 8 mg single IV dose,2.00 mmHg
same,"Pressure first producing feeling of abdominal sensation, Differences from Placebo",[1]; 8 mg single IV dose,−1.67 mmHg
same,"Pressure first producing feeling of need to defecate, Differences from Placebo",[1]; 8 mg single IV dose,−0.67 mmHg
same,"Volume first producing abdominal pain, Differences from Placebo",[1]; 8 mg single IV dose,-0.83 mL
same,"Volume first producing feeling of abdominal sensation, Differences from Placebo",[1]; 8 mg single IV dose,-19.2 mL
same,"Volume first producing feeling of need to defecate, Differences from Placebo",[1]; 8 mg single IV dose,-10.0 mL
same,Pressure first producing abdominal pain,[1]; 8 mg single IV dose,32.3 mmHg
same,Pressure first producing feeling of abdominal sensation,[1]; 8 mg single IV dose,12.0 mmHg
same,Pressure first producing feeling of need to defecate,[1]; 8 mg single IV dose,20.3 mmHg
same,Volume first producing abdominal pain,[1]; 8 mg single IV dose,297 mL
same,Volume first producing feeling of abdominal sensation,[1]; 8 mg single IV dose,133 mL
same,Volume first producing feeling of need to defecate,[1]; 8 mg single IV dose,232 mL
same,"Pressure first producing abdominal pain, Differences from Placebo",[1]; 16 mg single IV dose,1.33 mmHg
same,"Pressure first producing feeling of abdominal sensation, Differences from Placebo",[1]; 16 mg single IV dose,−1.00 mmHg
same,"Pressure first producing feeling of need to defecate, Differences from Placebo",[1]; 16 mg single IV dose,−1.00 mmHg
same,"Volume first producing abdominal pain, Differences from Placebo",[1]; 16 mg single IV dose,15.8 mL
same,"Volume first producing feeling of abdominal sensation, Differences from Placebo",[1]; 16 mg single IV dose,-14.2 mL
same,"Volume first producing feeling of need to defecate, Differences from Placebo",[1]; 16 mg single IV dose,-3.75 mL
same,Pressure first producing abdominal pain,[1]; 16 mg single IV dose,31.7 mmHg
same,Pressure first producing feeling of abdominal sensation,[1]; 16 mg single IV dose,12.7 mmHg
same,Pressure first producing feeling of need to defecate,[1]; 16 mg single IV dose,20.0 mmHg
same,Volume first producing abdominal pain,[1]; 16 mg single IV dose,313 mL
same,Volume first producing feeling of abdominal sensation,[1]; 16 mg single IV dose,138 mL
same,Volume first producing feeling of need to defecate,[1]; 16 mg single IV dose,238 mL
same,"Contraction Force Amplitude, Absolute Values",[2]; [5],88.3 mmHg
same,"Contraction Force Amplitude, Change from Placebo",[2]; [5],−4.2 mmHg
same,"Contraction Force Duration, Absolute Values",[2]; [5],4.5 s
same,"Contraction Force Duration, Change from Placebo",[2]; [5],-0.0 s
same,"Contraction Force Amplitude, Absolute Values",[2]; [6],85.5 mmHg
same,"Contraction Force Amplitude, Change from Placebo",[2]; [6],−7.1 mmHg
same,"Contraction Force Duration, Absolute Values",[2]; [6],5.0 s
same,"Contraction Force Duration, Change from Placebo",[2]; [6],0.4 s
same,"Contraction Force Amplitude, Absolute Values",[2]; [7],84.7 mmHg
same,"Contraction Force Amplitude, Change from Placebo",[2]; [7],−3.6 mmHg
same,"Contraction Force Duration, Absolute Values",[2]; [7],3.7 s
same,"Contraction Force Duration, Change from Placebo",[2]; [7],-0.5 s
same,"Contraction Force Amplitude, Absolute Values",[2]; [8],85.4 mmHg
same,"Contraction Force Amplitude, Change from Placebo",[2]; [8],−2.8 mmHg
same,"Contraction Force Duration, Absolute Values",[2]; [8],4.0 s
same,"Contraction Force Duration, Change from Placebo",[2]; [8],-0.2 s
same,"Contraction Force Amplitude, Absolute Values",[2]; [9],61.5 mmHg
same,"Contraction Force Amplitude, Change from Placebo",[2]; [9],−5.3 mmHg
same,"Contraction Force Duration, Absolute Values",[2]; [9],3.0 s
same,"Contraction Force Duration, Change from Placebo",[2]; [9],0.1 s
same,"Contraction Force Amplitude, Absolute Values",[2]; [10],59.3 mmHg
same,"Contraction Force Amplitude, Change from Placebo",[2]; [10],−7.5 mmHg
same,"Contraction Force Duration, Absolute Values",[2]; [10],2.9 s
same,"Contraction Force Duration, Change from Placebo",[2]; [10],-0.0 s
same,"Velocity of Propagation, Onset, Absolute Values",[2]; [11],3.7 cm/sec
same,"Velocity of Propagation, Onset, Change from Placebo",[2]; [11],0.4 cm/sec
same,"Velocity of Propagation, Peak, Absolute Values",[2]; [11],3.6 cm/sec
same,"Velocity of Propagation, Peak, Change from Placebo",[2]; [11],−0.2 cm/sec
same,"Velocity of Propagation, Onset, Absolute Values",[2]; [12],3.5 cm/sec
same,"Velocity of Propagation, Onset, Change from Placebo",[2]; [12],0.2 cm/sec
same,"Velocity of Propagation, Peak, Absolute Values",[2]; [12],3.3 cm/sec
same,"Velocity of Propagation, Peak, Change from Placebo",[2]; [12],−0.5 cm/sec
same,"Velocity of Propagation, Onset, Absolute Values",[2]; [13],2.3 cm/sec
same,"Velocity of Propagation, Onset, Change from Placebo",[2]; [13],0.0 cm/sec
same,"Velocity of Propagation, Peak, Absolute Values",[2]; [13],2.8 cm/sec
same,"Velocity of Propagation, Peak, Change from Placebo",[2]; [13],0.1 cm/sec
same,"Velocity of Propagation, Onset, Absolute Values",[2]; [14],2.3 cm/sec
same,"Velocity of Propagation, Onset, Change from Placebo",[2]; [14],−0.0 cm/sec
same,"Velocity of Propagation, Peak, Absolute Values",[2]; [14],2.7 cm/sec
same,"Velocity of Propagation, Peak, Change from Placebo",[2]; [14],0.0 cm/sec
same,AUC(0-τ) ratio Mild/Healthy,[3],"71 (38, 132) %"
same,AUC(0-τ) ratio Moderate/Healthy,[3],"49 (25, 95) %"
same,AUC(0-τ) ratio Renal Combined/Healthy,[3],"76 (47, 124) %"
same,AUC(0-τ) ratio Severe/Healthy,[3],"130 (66, 254) %"
same,CL/F ratio Mild/Healthy,[3],"141 (76, 264) %"
same,CL/F ratio Moderate/Healthy,[3],"206 (105, 403) %"
same,CL/F ratio Renal Combined/Healthy,[3],"131 (81, 213) %"
same,CL/F ratio Severe/Healthy,[3],"77 (39, 151) %"
same,Cmax ratio Mild/Healthy,[3],"83 (50, 140) %"
same,Cmax ratio Moderate/Healthy,[3],"55 (32, 96) %"
same,Cmax ratio Renal Combined/Healthy,[3],"90 (60, 134) %"
same,Cmax ratio Severe/Healthy,[3],"156 (89, 272) %"
same,T½ ratio Mild/Healthy,[3],"85 (63, 114) %"
same,T½ ratio Moderate/Healthy,[3],"65 (47, 89)* %"
same,T½ ratio Renal Combined/Healthy,[3],"78 (62, 99) %"
same,T½ ratio Severe/Healthy,[3],"87 (64, 120) %"
same,Tmax,[3]; 2 mg,1.13 h
same,Tmax,[4]; both,1 h
same,Tmax,"[4]; both, 8 mg",1 h
same,AUC,"[4]; both, 8 mg",112 ng·h/mL
same,Cmax,"[4]; both, 8 mg",43.3 ng/mL
same,half-life,"[4]; both, 8 mg, T½",1.44 h
same,half-life,"[4]; both, 16 mg, T½",1.3 h
same,half-life,"[4]; both, Mean half-life",1.2 to 1.4 h
same,Tmax,"[4]; female, 8 mg",1 h
same,AUC,"[4]; female, 8 mg",104 ng·h/mL
same,Cmax,"[4]; female, 8 mg",43.2 ng/mL
same,half-life,"[4]; female, 8 mg, T½",1.41 h
same,Tmax,"[4]; female, po, 8 mg",1 h
same,AUC,"[4]; female, po, 8 mg",138 ng·h/mL
same,Cmax,"[4]; female, po, 8 mg",52.2 ng/mL
same,half-life,"[4]; female, po, 8 mg, T½",1.45 h
same,Tmax,"[4]; female, po, 16 mg",1 h
same,Tmax,"[4]; male, 8 mg",1 h
same,AUC,"[4]; male, 8 mg",74.5 ng·h/mL
same,Cmax,"[4]; male, 8 mg",35.8 ng/mL
same,half-life,"[4]; male, 8 mg, T½",1.22 h
same,Tmax,"[4]; male, po, 8 mg",1 h
same,AUC,"[4]; male, po, 8 mg",89.9 ng·h/mL
same,Cmax,"[4]; male, po, 8 mg",35.5 ng/mL
same,half-life,"[4]; male, po, 8 mg, T½",1.44 h
same,Tmax,"[4]; male, po, 16 mg",1 h
